We go through 9 compounds from PubChem BioAssay (NCI).

Some test systems named below: HCT-15 colon; IGROV1 ovarian; COLO 205 colon; HOP-92 NSCLC; K-562 leukemia; HL-60(TB) leukemia; A549 NSCLC; SK-MEL-5 melanoma; KM12 colon; U251 CNS.
What all share (assay): NCI anticancer screen, dose series, 48 h

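48-hour exposure; five concentrations; linearly interpolated endpoints. GI50 is the concentration that inhibits growth by half. TGI denotes the concentration required for complete inhibition of growth.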

As to `COc1ccc(/C=C2\CCCC3=C2NC(C)=NC3c2ccc(OC)c(OC)c2)cc1OC` (stereo not given), the GI50 in the assay with HCT-15 colon was 3.52 µM; in the assay on IGROV1 ovarian, 50.6 µM; in the assay on COLO 205 colon, 5.5 µM; in the assay with HOP-92 NSCLC it was 18.9 µM; in the assay with K-562 leukemia, 4.54 µM; with HL-60(TB) leukemia, 5.84 µM. In addition, the GI50 in the assay on A549 NSCLC was 53.7 µM; in the assay on SK-MEL-5 melanoma it was 9.43 µM; with KM12 colon, 61.2 µM; in the assay with U251 CNS, 23.4 µM. Further, the TGI with HCT-15 colon is more than 100 µM; in the assay with IGROV1 ovarian, more than 100 µM; with COLO 205 colon, more than 100 µM; in the assay with HOP-92 NSCLC, 92.6 µM; with K-562 leukemia it was more than 100 µM; with HL-60(TB) leukemia, more than 100 µM. In addition, the TGI in the assay on A549 NSCLC, in the assay on SK-MEL-5 melanoma, with KM12 colon and in the assay on U251 CNS was more than 100 µM in each case.

As to `CCOC(=O)N1C2C=C(C)C(C3C(C)C(=O)N31)N(C(=O)c1ccccc1)O2` (stereo not given), the TGI with HCT-15 colon, in the assay with IGROV1 ovarian, in the assay with COLO 205 colon, in the assay with HOP-92 NSCLC, in the assay with K-562 leukemia and with HL-60(TB) leukemia was more than 100 µM in each case. Moreover, the TGI in the assay with A549 NSCLC, with SK-MEL-5 melanoma, in the assay on KM12 colon and in the assay with U251 CNS was more than 100 µM in each case.

As to `Fc1ccc(Nc2nccc(-c3c(-c4ccc(C(F)(F)F)cc4)nn4ncccc34)n2)cc1F`, the GI50 in the assay on HCT-15 colon, in the assay on IGROV1 ovarian, in the assay with COLO 205 colon, in the assay with HOP-92 NSCLC, in the assay with K-562 leukemia and in the assay with HL-60(TB) leukemia was more than 25 µM in each case. For the same compound, the GI50 with A549 NSCLC, in the assay on SK-MEL-5 melanoma, in the assay with KM12 colon and in the assay with U251 CNS was more than 25 µM throughout. The TGI in the assay on HCT-15 colon, in the assay on IGROV1 ovarian, in the assay on COLO 205 colon, in the assay on HOP-92 NSCLC, in the assay with K-562 leukemia and in the assay on HL-60(TB) leukemia was more than 25 µM each time. For the same compound, the TGI in the assay with A549 NSCLC, with SK-MEL-5 melanoma, in the assay with KM12 colon and in the assay with U251 CNS was more than 25 µM in each case.

As for `COc1ccc(COCC(Cn2ccnc2)OCc2ccc(C(=O)O)cc2)cc1` (stereo not given), the TGI in the assay on HCT-15 colon, in the assay on IGROV1 ovarian, in the assay with COLO 205 colon, in the assay on HOP-92 NSCLC, in the assay on K-562 leukemia and with HL-60(TB) leukemia was more than 100 µM throughout. For the same compound, the TGI in the assay with A549 NSCLC, in the assay with SK-MEL-5 melanoma, in the assay on KM12 colon and in the assay with U251 CNS was more than 100 µM in each case.

Regarding `COc1ccc2c(c1)C(=O)c1c-2n(CCCN2CCOCC2)c(=O)c2ccccc12`, the GI50 is 3.64 µM in the assay on HCT-15 colon; 1.87 µM in the assay with IGROV1 ovarian; 2.81 µM in the assay with COLO 205 colon; 8.39 µM in the assay with HOP-92 NSCLC; 4.47 µM with K-562 leukemia; 4.59 µM in the assay on HL-60(TB) leukemia. The GI50 in the assay with A549 NSCLC is 1.97 µM; in the assay on SK-MEL-5 melanoma, 1.37 µM; with KM12 colon it was 3.64 µM; in the assay on U251 CNS, 2.01 µM. Besides, the TGI in the assay on HCT-15 colon is more than 100 µM; in the assay with IGROV1 ovarian, more than 100 µM; in the assay on COLO 205 colon, more than 41 µM; in the assay on HOP-92 NSCLC it was more than 57.5 µM; in the assay on K-562 leukemia it was more than 100 µM; in the assay on HL-60(TB) leukemia it was more than 100 µM. In addition, the TGI amounted to 8.41 µM in the assay on A549 NSCLC, 2.68 µM in the assay with SK-MEL-5 melanoma, 42.5 µM in the assay on KM12 colon and 11.6 µM with U251 CNS.

With `Clc1ccc(CN2COc3c(cc(Cl)c4cccnc34)C2)cc1`, the TGI in the assay on HCT-15 colon is 13.5 µM; in the assay on IGROV1 ovarian, 8 µM; with COLO 205 colon it was 31.7 µM; in the assay on HOP-92 NSCLC, 12.9 µM; in the assay with K-562 leukemia, 3.74 µM; with HL-60(TB) leukemia, 2.11 µM. Besides, the TGI in the assay on A549 NSCLC was found to be 6.12 µM; in the assay with SK-MEL-5 melanoma it was 8.92 µM; in the assay with KM12 colon, 6.32 µM; in the assay with U251 CNS, 6.45 µM.

On to `Fc1ccc(Nc2nc(NCCNc3ccnc4cc(Cl)ccc34)nc(N3CCOCC3)n2)cc1`, for which the GI50 with HCT-15 colon was 2.46 µM; with IGROV1 ovarian, 6.3 µM; in the assay on COLO 205 colon it was 1.71 µM; in the assay with HOP-92 NSCLC it was 1.03 µM; with K-562 leukemia it was 2.91 µM; in the assay on HL-60(TB) leukemia, 1.8 µM. In addition, the GI50 is 10.5 µM in the assay on A549 NSCLC, 2.15 µM in the assay on SK-MEL-5 melanoma, 5.44 µM in the assay with KM12 colon and 4.72 µM in the assay with U251 CNS. Further, the TGI with HCT-15 colon amounted to 6.56 µM; in the assay with IGROV1 ovarian it was 21.4 µM; in the assay on COLO 205 colon, 3.26 µM; in the assay with HOP-92 NSCLC, 6.88 µM; in the assay on K-562 leukemia, 10.3 µM; in the assay with HL-60(TB) leukemia, 4.89 µM. Moreover, the TGI is 25.1 µM in the assay on A549 NSCLC, 4.62 µM with SK-MEL-5 melanoma, 18.7 µM with KM12 colon and 17.5 µM with U251 CNS.

Take `CCN1C(=O)N(CC)C2C1NN=c1s/c(=C3\C(=O)N(C)c4ccccc43)c(=O)n12` (stereo not given): the GI50 in the assay with HCT-15 colon was 0.536 µM; in the assay on IGROV1 ovarian, 0.891 µM; in the assay on COLO 205 colon it was 1.08 µM; in the assay with HOP-92 NSCLC, 0.685 µM; in the assay on K-562 leukemia it was 0.352 µM; with HL-60(TB) leukemia, 0.434 µM. Further, the GI50 in the assay on A549 NSCLC is 1.83 µM; in the assay on SK-MEL-5 melanoma, 0.837 µM; in the assay with KM12 colon it was 0.647 µM; with U251 CNS, 1.97 µM. For the same compound, the TGI with HCT-15 colon is more than 100 µM; in the assay with IGROV1 ovarian, 43.7 µM; in the assay with COLO 205 colon, 55.1 µM; with HOP-92 NSCLC, more than 100 µM; with K-562 leukemia it was more than 100 µM; in the assay on HL-60(TB) leukemia, 2.05 µM. In addition, the TGI is more than 100 µM in the assay on A549 NSCLC, more than 89.2 µM in the assay with SK-MEL-5 melanoma, more than 100 µM with KM12 colon and more than 68.9 µM with U251 CNS.

Turning to `O=c1[nH]cc(OCC(F)(F)F)c(=O)[nH]1`, the TGI in the assay on HCT-15 colon, in the assay on IGROV1 ovarian, in the assay with COLO 205 colon, in the assay with HOP-92 NSCLC, in the assay with K-562 leukemia and in the assay on HL-60(TB) leukemia was more than 100 µM in each case. Further, the TGI with A549 NSCLC, in the assay with SK-MEL-5 melanoma, in the assay on KM12 colon and in the assay on U251 CNS was more than 100 µM each time.
